Results reported in US20220226291A1, “Combination Treatment of Cancer Using Sulfonamide Compound and Immune Regulator” (Taiho Pharmaceutical Co., Ltd, priority 2019, published 2022).

Experiments:
[1] = test system: MC38 mouse colon cancer cells; assay: Antitumor effect in MC38 colon cancer cell-transplanted mouse models (tumor volume); type: in vivo; settings: for T/C (%): Day 15; for TV on Day 15 (mm^3, mean ± SE): MC38 s.c. in C57BL/6NCrl mice, n=10
Experimental: The mouse colon cancer cell strain MC38 was obtained from Dr. Yoshihiro Hayakawa (University of Toyama, Toyama, Japan). The MC38 cell strain was subjected to culture in an RPMI 1640 medium containing 10% fetal bovine serum and then to subculture in an incubator at 37° C. in the presence of 5% CO2 at a frequency of once or twice a week.
The MC38 cell suspension was transplanted subcutaneously at 1×10^6 cells/0.1 ml to the right chest of 6-week-old C57BL/6NCrl mice (Charles River Laboratories Japan, Inc.).
After transplantation, tumors were allowed to grow to reach the tumor volume (TV) of 50 to 300 mm^3. The longer diameter and the shorter diameter of the tumor were measured using a Digimatic caliper and the tumor volume (TV) was calculated in accordance with the following formula.
The animals were divided into groups each consisting of 10 individuals by stratified random allocation using TV as the indicator. The day on which grouping (n=10) was performed was designated as Day 0.
Tumor volume changes (T/C) were calculated based on TV on the final day of evaluation (Day 15).
(§1) An aqueous solution of 0.5% Hypromellose was prepared by adding an adequate amount of an injection solvent (Japanese Pharmacopoeia) to and dissolving Hypromellose at a concentration of 0.5 w/v %. Compound 1, synthesized in accordance with the method disclosed in WO 2017/209155, was grounded in an agate mortar, suspended at a given concentration in the aqueous solution of 0.5% Hypromellose, and then ultrasonically treated to obtain a homogeneous suspension. The resulting suspension was orally administered as Compound 1 once a day for continuous 14 days at 25 mg/kg/day or 50 mg/kg/day. To the control group, the aqueous solution of 0.5% Hypromellose was orally administered once a day for continuous 14 days.
(§2) As an anti-mouse PD-1 antibody (anti-mPD-1 Ab), CD279 (PD-1) Monoclonal Antibody (RMP1-14), eBioscience (Thermo Fisher Scientific) was diluted to a given concentration with PBS immediately before administration. On the first day of administration (Day 1), the anti-mouse PD-1 antibody was administered intraperitoneally at 0.05 mg/body.

[2] = Body weight changes in MC38 colon cancer cell-transplanted mouse models; type: in vivo
Experimental: Body weights were measured using an electronic balance for animals. Body weight changes (BWCn) on the n^th day were determined based on the body weight measured on the n^th day (BWn) in accordance with the following formula.
as §1, §2

[3] = Non-Patent Literature 10; cited from earlier work
RNR = molecular target: T1, RNR (Homo sapiens, UniProt P31350); settings: Non-Patent Literature 7; cited from earlier work
T1 sequence (P31350 1-389): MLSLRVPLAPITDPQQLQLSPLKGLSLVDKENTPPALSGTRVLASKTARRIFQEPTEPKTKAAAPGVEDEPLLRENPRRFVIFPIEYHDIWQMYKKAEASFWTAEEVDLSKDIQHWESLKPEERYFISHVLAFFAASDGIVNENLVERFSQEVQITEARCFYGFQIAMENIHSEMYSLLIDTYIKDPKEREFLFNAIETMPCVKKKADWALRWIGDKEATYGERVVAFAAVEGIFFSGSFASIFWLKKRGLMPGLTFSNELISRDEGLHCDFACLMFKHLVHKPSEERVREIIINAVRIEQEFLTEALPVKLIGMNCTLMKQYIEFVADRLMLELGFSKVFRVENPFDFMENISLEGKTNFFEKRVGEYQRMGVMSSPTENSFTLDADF

[4] = Compound 1 25 mg/kg/day p.o. days 1-14
[5] = Compound 1 50 mg/kg/day p.o. days 1-14

For Cc1ccc(F)c([C@@H](C)[C@H](NS(=O)(=O)c2ccc(Cl)cc2C(N)=O)c2n[nH]c(=O)o2)c1C [Compound 1, 5-Chloro-2-(N-((1S,2R)-2-(6-fluoro-2,3-dimethylphenyl)-1-(5-oxo-4,5-dihydro-1,3,4-oxadiazol-2-yl)propyl)sulfamoyl)benzamide], the “T/C (%)” value [1, 4] was 91.9%, the “TV on Day 15 (mm^3, mean ± SE)” value [1, 4] was 868 ± 182 mm^3 and the “T/C (%)” value [1, 5] was 29.7%. For the same compound, the “TV on Day 15 (mm^3, mean ± SE)” value [1, 5] was 306 ± 79 mm^3, the “TV on Day 15 compared with the control group (Dunnett's test)” value ([1]; Compound 1 at 50 mg/kg/day alone) was “significantly lower” and the “BWC on Day 15 (%, mean ± SE)” value [2, 4] was 4.0 ± 0.7%. For the same compound, the “BWC on Day 15 (%, mean ± SE)” value [2, 5] was 4.9 ± 1.0%.

In the case of NC(=S)NN=Cc1ncccc1N [Compound 3-AP, 3-aminopyridine-2-carboxaldehyde thiosemicarbazone], the “Side effects caused in clinical cases” value [3] is given as “hypoxia, dyspnea, methemoglobinemia”.

For NC(=O)NO [HU, hydroxyurea], the RNR inhibitory activity (RNR) is given as “very weak”.
